According to patent US4401430A, “Method of and apparatus for detoxifying mammalian hosts” (priority 1981, dated 1983):
Where a name gives a salt, the structure may show the parent alone. Read-outs that look alike come from different tables or passages of the source.

Columns and labels:
human albumin [1] = test: Free chlorpromazine in human albumin solution with ethanol (differential solution pH change); type: in vitro ADME; details: ethanol 0 to 1.0% v/v; room temperature
Procedure: Chlorpromazine HCl, a tranquilizer, was added to a human albumin solution at room temperature and allowed to equilibrate. Differential solution pH changes, related to free drug concentration, were measured.

human albumin [2] = system: human albumin
Procedure: Imipramine HCl, an antidepressant, was added to a human albumin solution at room temperature and allowed to equilibrate. Differential solution pH changes, related to free drug concentration, were measured. Ethanol concentrations of 0, 0.2, 0.4, 0.6, 0.8 and 1.0% v/v were tested.

[3] = Thiopental in fresh human plasma with ethanol, equilibrated with coated activated charcoal (uv relative absorbance); type: in vitro ADME
Procedure: Thiopental was added to fresh human plasma at room temperature and allowed to equilibrate. Relative absorbances, proportional to free drug concentration, were measured spectrophotometrically (uv). Ethanol concentrations of 0, 0.4, 0.7, 1.0, and 1.4% v/v were tested. Drug/plasma and drug/plasma/ethanol solutions were equilibrated with coated activated charcoal.

[4] = Free drug concentration of thiopental in fresh human plasma with ethanol (thin layer chromatography); type: in vitro ADME; details: ethanol 0 to 1.0% v/v, room temperature
Procedure: Thiopental was added to fresh human plasma at room temperature and allowed to equilibrate. Thin layer chromatography, used as an indicator of free drug concentration, was compared to thiopental calibrated plates. Ethanol concentrations of 0, 0.1, 0.2, 0.3, 0.4, 0.5, 0.6, 0.7, 0.8 and 1.0% v/v were tested. A maximum free drug concentration occurred at and above 0.6% v/v.

human albumin [5] = test: Free thiopental in human albumin solution with sodium lauryl sulfate (differential solution pH change); type: in vitro ADME; details: sodium lauryl sulfate 0, 2, 4, 6, 8, and 10 mg/ml; room temperature
Procedure: Thiopental was added to a human albumin solution at room temperature and allowed to equilibrate. Differential solution pH changes, related to free drug concentration, were measured.

[6] = Effectiveness as liberating agent for bilirubin (general statement); type: in vitro ADME
Source text: (§1) The term "liberating agent" as used herein defines a reagent which when added to a body fluid, increases the ratio of a free soluble chemical to the total content of that chemical in the body fluid. The total content is the aggregate of both the free soluble and bound states of the chemical. More than one physical mechanism can be encountered with the same resultant advantageous partitioning of the target chemical from the bound to the free soluble phase. […] In general, liberating agents as herein defined are useful in body fluids and in vivo.

[7] = less than two percent by volume (% v/v); barbiturates (thiopental, secobarbital, pentobarbital), tricyclics (imipramine, chlorpromazine)
Source text: as §1

[8] = Effectiveness as liberating agent for thiopental (general statement); type: in vitro ADME; details: specific drugs such as thiopental
Source text: as §1

Structure (SMILES): CN(C)CCCN1c2ccccc2Sc2ccc(Cl)cc21 [Chlorpromazine HCl]
- free soluble concentration of the drug (human albumin [1]): increases in free soluble concentration

Structure (SMILES): CN(C)CCCN1c2ccccc2CCc2ccccc21 [Imipramine HCl]
- free soluble drug concentration (differential pH responses) (human albumin [2]): significant increases in the free soluble drug concentration

Structure (SMILES): CCCC(C)C1(CC)C(=O)NC(=S)NC1=O (centres unmarked) [Thiopental]
- adsorption of the drug by charcoal ([3]; 0 to 1.4% v/v ethanol): significant increased adsorption of the drug by charcoal
- change in relative absorbance ([3]; from 0 to 1.4% v/v ethanol): 13%
- ethanol concentration at and above which maximum free drug concentration occurred [4]: ≥ 0.6 % v/v
- differential solution pH change (human albumin [5]): continuous pH change
- free soluble drug concentration (human albumin [5]): increasing free soluble drug concentrations

Structure (SMILES): CC(=O)Oc1ccccc1C(=O)O [acetylsalicylic acid]
- specificity as liberating agent [6]: specific for bilirubin

Structure (SMILES): CCO [ethanol]
- effectiveness as liberating agent [7]: effective

Structure (SMILES): CCCCCCCCCCCC(=O)O [lauric acid]
- effectiveness as liberating agent [8]: effective

Structure (SMILES): CCCCCCCCCCCCS(=O)(=O)[O-].[Na+] [sodium lauryl sulfonate]
- effectiveness as liberating agent [8]: effective
